# From ChEMBL document CHEMBL1201862, “PubChem BioAssay data set” (2004)
# Active and inactive are the calls of the source.
# How the values were obtained:
# [1] = biological target: T1, Aminopeptidase N (Plasmodium falciparum FcB1/Columbia, UniProt O96935); assay: P. falciparum M1AAP inhibitors, biochemical, fluorogenic H-Leu-NHMec substrate, 1536-well (AID 1445); design: species or system Plasmodium falciparum 3D7, 3D7
# T1 sequence (O96935 whole entry): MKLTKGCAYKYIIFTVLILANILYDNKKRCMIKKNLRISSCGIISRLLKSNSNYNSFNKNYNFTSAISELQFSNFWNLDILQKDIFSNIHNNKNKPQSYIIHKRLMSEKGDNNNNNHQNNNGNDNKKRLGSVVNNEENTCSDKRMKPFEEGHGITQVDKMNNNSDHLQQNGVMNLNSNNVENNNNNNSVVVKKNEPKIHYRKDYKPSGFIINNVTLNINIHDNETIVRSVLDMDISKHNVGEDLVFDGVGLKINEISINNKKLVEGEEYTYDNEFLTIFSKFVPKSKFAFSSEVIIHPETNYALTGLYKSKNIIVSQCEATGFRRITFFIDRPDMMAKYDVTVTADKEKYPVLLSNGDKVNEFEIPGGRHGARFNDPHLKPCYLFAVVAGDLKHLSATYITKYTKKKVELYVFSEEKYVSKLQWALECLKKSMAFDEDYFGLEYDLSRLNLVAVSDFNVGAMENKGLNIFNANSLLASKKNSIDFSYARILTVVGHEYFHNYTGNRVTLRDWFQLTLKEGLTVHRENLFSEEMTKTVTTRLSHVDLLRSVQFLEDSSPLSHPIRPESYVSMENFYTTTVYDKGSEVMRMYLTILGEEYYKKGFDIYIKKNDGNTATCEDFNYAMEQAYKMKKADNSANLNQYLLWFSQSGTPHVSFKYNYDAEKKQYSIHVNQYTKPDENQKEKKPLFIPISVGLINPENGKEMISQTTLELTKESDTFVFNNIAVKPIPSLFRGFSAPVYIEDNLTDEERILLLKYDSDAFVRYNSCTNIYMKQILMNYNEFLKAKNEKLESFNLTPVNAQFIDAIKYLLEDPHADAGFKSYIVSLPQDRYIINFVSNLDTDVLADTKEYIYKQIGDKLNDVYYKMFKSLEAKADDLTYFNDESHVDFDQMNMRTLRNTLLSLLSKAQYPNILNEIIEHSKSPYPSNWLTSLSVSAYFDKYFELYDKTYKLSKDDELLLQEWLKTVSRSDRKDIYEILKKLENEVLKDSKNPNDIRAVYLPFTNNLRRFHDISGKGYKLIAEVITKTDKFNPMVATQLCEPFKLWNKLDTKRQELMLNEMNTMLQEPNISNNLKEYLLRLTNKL
# [2] = intracellular Trypanosoma cruzi inhibitors in host cells – cell-based, plate reader, cherry-pick samples, set 3, dose response (AID 651818); assay type: functional;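 note: compounds incubated with infected cells for about four days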
# [3] = biological target: FAD-linked sulfhydryl oxidase ALR (Homo sapiens, UniProt P55789); assay: inhibitors of human ALR sulfhydryl oxidase, dose response, biochemical, H2O2 detection, luminescence, cherry-pick (AID 493248)
# [4] = biological target: T2, Replicative DNA helicase DnaB (Mycobacterium tuberculosis, UniProt P9WMR3); assay: DnaB intein splicing inhibitors, dose response, biochemical, cell-free fluorescence (AID 449749); assay type: functional
# T2 sequence (P9WMR3 whole entry): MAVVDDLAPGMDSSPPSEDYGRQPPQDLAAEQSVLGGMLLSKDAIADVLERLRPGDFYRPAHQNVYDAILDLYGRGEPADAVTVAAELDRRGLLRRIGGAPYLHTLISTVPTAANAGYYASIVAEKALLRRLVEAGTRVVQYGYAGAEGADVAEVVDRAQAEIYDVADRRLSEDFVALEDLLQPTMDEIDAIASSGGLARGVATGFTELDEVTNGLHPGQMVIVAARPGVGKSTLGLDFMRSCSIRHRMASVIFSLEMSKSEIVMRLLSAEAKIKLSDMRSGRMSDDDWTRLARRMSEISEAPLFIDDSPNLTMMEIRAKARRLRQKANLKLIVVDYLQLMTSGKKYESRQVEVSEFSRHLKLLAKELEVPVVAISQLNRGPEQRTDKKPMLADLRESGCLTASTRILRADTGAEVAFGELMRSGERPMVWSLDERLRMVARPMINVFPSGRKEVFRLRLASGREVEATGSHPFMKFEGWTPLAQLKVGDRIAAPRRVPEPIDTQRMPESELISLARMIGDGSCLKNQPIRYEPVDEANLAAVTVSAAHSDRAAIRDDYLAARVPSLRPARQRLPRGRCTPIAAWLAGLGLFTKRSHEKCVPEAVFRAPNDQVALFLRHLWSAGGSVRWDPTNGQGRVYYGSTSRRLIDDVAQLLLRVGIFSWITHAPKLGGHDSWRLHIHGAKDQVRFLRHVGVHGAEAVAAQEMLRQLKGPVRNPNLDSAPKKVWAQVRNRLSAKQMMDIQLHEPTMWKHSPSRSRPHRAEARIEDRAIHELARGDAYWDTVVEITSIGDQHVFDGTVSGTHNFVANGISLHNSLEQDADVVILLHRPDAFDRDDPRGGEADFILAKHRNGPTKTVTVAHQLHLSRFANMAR
# [5] = biological target: T3, Protein RecA (Mycobacterium tuberculosis, UniProt P9WHJ3); assay: Fluorescence Cell-Free Homogeneous Dose Retest to Identify Inhibitors of RecA-Intein Splicing Activity. [Related pubchem assays (depositor defined):AID2097, AID2223, AID489010, AID492950]; assay type: functional
# T3 sequence (P9WHJ3 whole entry): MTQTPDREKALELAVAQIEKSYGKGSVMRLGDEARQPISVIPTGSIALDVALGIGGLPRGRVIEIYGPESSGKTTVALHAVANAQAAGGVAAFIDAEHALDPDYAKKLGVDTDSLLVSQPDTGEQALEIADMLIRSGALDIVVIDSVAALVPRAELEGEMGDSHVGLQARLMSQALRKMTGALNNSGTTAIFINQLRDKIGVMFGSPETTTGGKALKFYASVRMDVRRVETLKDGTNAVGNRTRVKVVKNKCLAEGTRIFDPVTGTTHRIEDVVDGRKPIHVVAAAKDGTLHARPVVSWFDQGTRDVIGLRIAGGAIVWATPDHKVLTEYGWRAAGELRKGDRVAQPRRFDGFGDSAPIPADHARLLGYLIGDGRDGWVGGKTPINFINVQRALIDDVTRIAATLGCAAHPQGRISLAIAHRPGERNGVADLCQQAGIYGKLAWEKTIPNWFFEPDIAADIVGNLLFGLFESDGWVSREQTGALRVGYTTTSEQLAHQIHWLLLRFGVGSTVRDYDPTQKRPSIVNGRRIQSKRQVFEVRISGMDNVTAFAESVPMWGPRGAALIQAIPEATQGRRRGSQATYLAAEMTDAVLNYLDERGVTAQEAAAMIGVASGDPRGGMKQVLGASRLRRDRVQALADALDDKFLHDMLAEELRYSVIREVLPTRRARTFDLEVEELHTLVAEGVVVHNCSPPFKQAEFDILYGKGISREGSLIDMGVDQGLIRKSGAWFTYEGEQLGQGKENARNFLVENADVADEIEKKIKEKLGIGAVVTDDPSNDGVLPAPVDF
# [6] = biological target: T4, Heat shock factor protein 1 (Mus musculus, UniProt P38532); assay: HSF1 potentiators in luciferase reporter cells, confirmation, cell-based, NIH3T3, luminescence, dose retest (AID 435004); assay type: functional;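 note: stress induced by proteasome inhibitor MG132 added 30 min after compound; luciferase reporter driven by HSF1 response element in NIH3T3 cells; actives raise luminescence as potentiators of the MG132 stress response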
# T4 sequence (P38532 whole entry): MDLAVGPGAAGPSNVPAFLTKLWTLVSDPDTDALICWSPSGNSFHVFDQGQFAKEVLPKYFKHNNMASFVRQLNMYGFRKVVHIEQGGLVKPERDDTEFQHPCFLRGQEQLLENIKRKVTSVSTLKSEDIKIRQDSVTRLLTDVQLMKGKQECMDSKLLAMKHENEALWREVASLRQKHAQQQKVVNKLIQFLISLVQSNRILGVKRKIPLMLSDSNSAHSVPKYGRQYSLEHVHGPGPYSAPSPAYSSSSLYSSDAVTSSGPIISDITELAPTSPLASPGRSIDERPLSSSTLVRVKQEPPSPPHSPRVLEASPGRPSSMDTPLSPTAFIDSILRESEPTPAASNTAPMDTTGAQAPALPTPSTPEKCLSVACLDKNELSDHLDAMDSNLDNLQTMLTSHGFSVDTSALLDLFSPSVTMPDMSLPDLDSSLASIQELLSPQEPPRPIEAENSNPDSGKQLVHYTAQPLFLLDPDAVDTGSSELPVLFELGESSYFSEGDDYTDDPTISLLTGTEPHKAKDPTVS
# [7] = biological target: Induced myeloid leukemia cell differentiation protein Mcl-1 (Homo sapiens, UniProt Q07820); assay type: functional
# [8] = tested on: INS1; assay: beta cell apoptosis inhibitors, cytokine rescue, dose response, luminescence, retest (AID 449756); assay type: functional, cell-based; conditions: Rattus norvegicus;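 note: cell death triggered by IL-1 beta plus TNF-alpha plus IFN-gamma mixture; protective hits raise ATP signal compared with cytokine alone wells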
# [9] = cytotoxicity toward NIH3T3 fibroblasts, dose response, counter-screen, cell-based, ATP luminescence, mouse fibroblasts (AID 2010); assay type: functional;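 note: cells exposed to compound for about 90 hours before reading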
# [10] = HepG2 cell cytotoxicity, dose response, cytotoxicity control for Shn3 inhibitor project, CellTiter-Glo, cherry-picked (AID 624134); assay type: functional, cell-based
# [11] = Shn3 3'UTR reporter inhibitors, dose response, cell-based, Clone20 osteoblasts, firefly luciferase, cherry-picked (AID 624132); assay type: functional;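 note: firefly luciferase luminescence from reporter carrying the Shn3 3'UTR in osteoblasts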
# [12] = biological target: Nonstructural protein 1 (Influenza A virus, UniProt Q194T2); assay type: functional, Influenza A virus (A/California/07/2009(H1N1))
# [13] = control 3'UTR Renilla luciferase suppression, dose response, counter-screen for Shn3 inhibitor project, cell-based, Clone20-Shn3RL, cherry-picked (AID 624133); assay type: functional
# [14] = inhibitors of intracellular T. cruzi replication, confirmation, NIH3T3 host cells, beta-gal luminescence (AID 2044); assay type: functional, cell-based;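 note: intracellular parasites grown in NIH/3T3 mouse fibroblasts as host cells; luminescent beta-galactosidase reporter signal from transgenic T. cruzi replicating inside host cells; inhibitors lower the luminescence signal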
# [15] = inhibitors of HIV Env-driven cell fusion, dose response, cherry-pick (AID 652057); assay type: functional, cell-based
# [16] = biological target: T5, Fatty acid synthase (Homo sapiens, UniProt P49327); assay: FAS thioesterase domain inhibitors, dose response, biochemical, endpoint fluorescence intensity, uHTS hits (AID 624327); assay type: functional;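 note: fluorescence from hydrolysis of an O-methyl fluorescein acyl ester substrate by the enzyme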
# [17] = biological target: T5, Fatty acid synthase; assay: FAS thioesterase domain inhibitors, dose response, biochemical, kinetic fluorescence intensity (AID 624326); assay type: functional;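 note: rate of fluorescence rise from hydrolysis of a fluorogenic O-methyl fluorescein ester substrate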
# Sequence of FAD-linked sulfhydryl oxidase ALR (P55789 whole entry): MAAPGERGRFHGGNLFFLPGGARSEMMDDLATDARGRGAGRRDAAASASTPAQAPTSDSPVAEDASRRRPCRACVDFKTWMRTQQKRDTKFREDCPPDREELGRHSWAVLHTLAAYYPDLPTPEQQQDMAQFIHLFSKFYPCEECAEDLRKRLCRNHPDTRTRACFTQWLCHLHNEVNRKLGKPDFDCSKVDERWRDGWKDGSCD
# T5 sequence (P49327 whole entry, the tested form may be a part): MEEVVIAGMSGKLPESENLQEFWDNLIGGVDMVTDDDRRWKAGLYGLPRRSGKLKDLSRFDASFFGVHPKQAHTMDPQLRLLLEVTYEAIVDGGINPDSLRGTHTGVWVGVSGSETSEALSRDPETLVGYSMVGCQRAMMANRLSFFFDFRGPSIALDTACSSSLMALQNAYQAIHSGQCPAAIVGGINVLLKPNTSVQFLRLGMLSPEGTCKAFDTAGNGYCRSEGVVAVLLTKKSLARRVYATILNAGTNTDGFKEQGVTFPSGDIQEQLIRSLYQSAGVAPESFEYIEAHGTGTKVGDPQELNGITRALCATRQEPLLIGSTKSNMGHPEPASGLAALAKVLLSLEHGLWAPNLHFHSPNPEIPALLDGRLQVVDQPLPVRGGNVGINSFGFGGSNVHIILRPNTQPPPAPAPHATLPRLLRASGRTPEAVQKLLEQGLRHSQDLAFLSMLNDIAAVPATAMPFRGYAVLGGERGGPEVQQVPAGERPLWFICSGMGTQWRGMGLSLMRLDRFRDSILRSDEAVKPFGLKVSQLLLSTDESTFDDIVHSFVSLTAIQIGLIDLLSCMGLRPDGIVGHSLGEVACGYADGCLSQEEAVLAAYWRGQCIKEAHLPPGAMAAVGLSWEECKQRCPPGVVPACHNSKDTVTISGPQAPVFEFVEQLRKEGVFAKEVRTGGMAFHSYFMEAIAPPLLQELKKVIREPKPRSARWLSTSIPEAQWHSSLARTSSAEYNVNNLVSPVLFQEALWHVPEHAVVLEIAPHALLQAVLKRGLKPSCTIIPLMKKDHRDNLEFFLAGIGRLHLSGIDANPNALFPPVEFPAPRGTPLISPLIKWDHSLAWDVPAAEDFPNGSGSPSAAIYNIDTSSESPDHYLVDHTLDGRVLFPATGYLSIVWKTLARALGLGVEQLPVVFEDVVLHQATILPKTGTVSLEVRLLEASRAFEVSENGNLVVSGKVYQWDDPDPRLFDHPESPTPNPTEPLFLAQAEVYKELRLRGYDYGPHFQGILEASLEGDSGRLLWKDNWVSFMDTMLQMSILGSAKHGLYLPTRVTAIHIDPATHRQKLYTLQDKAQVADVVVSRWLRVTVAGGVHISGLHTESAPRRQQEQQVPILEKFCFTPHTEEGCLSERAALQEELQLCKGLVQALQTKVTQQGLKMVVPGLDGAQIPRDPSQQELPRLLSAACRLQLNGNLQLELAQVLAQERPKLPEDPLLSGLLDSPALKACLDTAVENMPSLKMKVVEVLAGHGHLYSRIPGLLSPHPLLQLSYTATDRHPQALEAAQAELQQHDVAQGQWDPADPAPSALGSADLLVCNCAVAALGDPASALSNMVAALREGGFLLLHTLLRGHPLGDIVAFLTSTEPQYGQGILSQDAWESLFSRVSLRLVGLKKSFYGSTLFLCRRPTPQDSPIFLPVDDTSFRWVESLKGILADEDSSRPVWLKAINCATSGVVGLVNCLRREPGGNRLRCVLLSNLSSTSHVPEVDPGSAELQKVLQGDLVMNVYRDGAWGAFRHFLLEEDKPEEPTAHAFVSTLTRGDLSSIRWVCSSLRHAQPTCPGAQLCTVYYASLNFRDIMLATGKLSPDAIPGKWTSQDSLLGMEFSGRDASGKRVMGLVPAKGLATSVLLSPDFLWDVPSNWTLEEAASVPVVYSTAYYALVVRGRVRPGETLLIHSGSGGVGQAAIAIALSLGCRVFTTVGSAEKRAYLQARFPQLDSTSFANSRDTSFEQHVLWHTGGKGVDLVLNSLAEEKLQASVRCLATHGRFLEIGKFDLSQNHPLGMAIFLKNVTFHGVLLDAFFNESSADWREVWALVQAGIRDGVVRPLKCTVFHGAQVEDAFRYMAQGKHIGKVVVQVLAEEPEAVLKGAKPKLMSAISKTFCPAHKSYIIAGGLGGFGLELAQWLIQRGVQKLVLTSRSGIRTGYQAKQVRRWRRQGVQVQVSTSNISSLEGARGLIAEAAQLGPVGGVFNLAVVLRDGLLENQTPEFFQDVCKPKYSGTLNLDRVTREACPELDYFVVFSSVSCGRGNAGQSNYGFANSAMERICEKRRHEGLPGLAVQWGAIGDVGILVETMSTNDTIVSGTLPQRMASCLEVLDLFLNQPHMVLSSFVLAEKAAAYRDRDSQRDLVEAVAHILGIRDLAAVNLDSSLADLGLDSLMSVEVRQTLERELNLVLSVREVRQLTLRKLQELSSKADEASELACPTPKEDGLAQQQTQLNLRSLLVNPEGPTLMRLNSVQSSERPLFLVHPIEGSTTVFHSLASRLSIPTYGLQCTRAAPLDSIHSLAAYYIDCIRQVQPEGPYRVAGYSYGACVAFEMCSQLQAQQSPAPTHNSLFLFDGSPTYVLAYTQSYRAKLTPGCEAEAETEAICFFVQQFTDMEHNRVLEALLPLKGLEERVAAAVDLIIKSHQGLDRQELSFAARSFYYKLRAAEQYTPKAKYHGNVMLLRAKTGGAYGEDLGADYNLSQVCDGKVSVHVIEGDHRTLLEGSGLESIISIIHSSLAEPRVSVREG
# Sequence of Induced myeloid leukemia cell differentiation protein Mcl-1 (Q07820 whole entry): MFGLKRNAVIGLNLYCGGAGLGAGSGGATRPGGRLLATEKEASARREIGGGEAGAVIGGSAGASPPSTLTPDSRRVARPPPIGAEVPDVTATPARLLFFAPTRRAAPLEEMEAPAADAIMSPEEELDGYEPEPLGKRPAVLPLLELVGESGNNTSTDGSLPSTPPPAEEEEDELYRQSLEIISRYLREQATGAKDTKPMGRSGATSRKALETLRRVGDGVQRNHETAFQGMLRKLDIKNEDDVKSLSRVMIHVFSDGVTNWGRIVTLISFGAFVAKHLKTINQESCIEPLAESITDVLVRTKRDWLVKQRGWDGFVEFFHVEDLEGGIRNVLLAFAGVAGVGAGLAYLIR
# Sequence of Nonstructural protein 1 (Q194T2 whole entry): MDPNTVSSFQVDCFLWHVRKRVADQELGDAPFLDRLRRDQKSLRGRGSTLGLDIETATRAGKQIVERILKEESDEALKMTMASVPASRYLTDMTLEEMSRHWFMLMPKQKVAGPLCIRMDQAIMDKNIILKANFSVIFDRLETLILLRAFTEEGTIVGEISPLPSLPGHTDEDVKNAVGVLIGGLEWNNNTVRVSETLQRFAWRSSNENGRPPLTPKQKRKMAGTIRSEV
compound,measurement,setting,value
O=C(CCN1CCOCC1)Nc1c(O)nc2ccc(Br)cc2c1-c1ccccc1,IC50,[1],93.9 µM (active)
C[C@@H]1CCCCO[C@H](CN(C)Cc2ccccc2)[C@@H](C)CN([C@H](C)CO)C(=O)c2cc(NC(=O)Nc3ccc(C(F)(F)F)cc3)ccc2O1,AC50,[2],5.97 µM (active)
COc1ccc(C2CC(c3ccccc3)=NN2c2ccccc2)c(C(=O)O)c1OC (stereo not drawn),AC50,[3],4.74 µM (active)
O=C(NN/C=C1\C(=O)N(c2ccccc2Cl)C(=O)c2ccccc21)c1cccnc1,IC50,[1],32.6 µM (active)
COc1ccc(S(=O)(=O)Nc2ccc3c(c2)CC(=O)N([C@H](C)CO)C[C@@H](C)[C@@H](CN(C)Cc2ccc(-c4ccccc4)cc2)O3)cc1,AC50,[2],2.35 µM (active)
C[C@@H]1CCCCO[C@H](CN(C)C(=O)Nc2cccc3ccccc23)[C@@H](C)CN([C@H](C)CO)C(=O)c2cc(NS(=O)(=O)c3ccc(Cl)cc3)ccc2O1,AC50,[2],3.37 µM (active)
CCO/C(O)=C1/C(CC)=Nc2ccccc2N=C1NS(=O)(=O)c1cc(Br)ccc1Br,IC50,[1],30.3 µM (active)
COc1ccccc1C(NC(C)=O)c1c(O)ccc2ccc(O)cc12 (stereo not drawn),AC50,[4],> 380 µM (inactive)
same,EC50,[5],2.89 µM (active)
same,AC50,[3],2.44 µM (active)
Cc1ccc(NC2CCCN(C(=O)c3cn4cc(Cl)ccc4n3)C2)cc1C (stereo not drawn),AC50,[3],1.01 µM (active)
CCc1n[nH]c(C(=O)N2CCCC(Nc3cccc(F)c3)C2)c1C (stereo not drawn),AC50,[3],2.88 µM (active)
O=C(CCC1CCCN(C(=O)c2ccc3cc[nH]c3c2)C1)NCc1ccc(F)c(F)c1 (stereo not drawn),IC50,[1],33.1 µM (active)
same,EC50,[6],38.9 µM (active)
O=C1N/C(=N\c2ccccc2)S/C1=C\C=C\c1ccco1,IC50,[7],12.2 µM (active)
CCN(CC)c1ccc(CNc2nc3ccccc3n2CCN2CCCCC2)cc1,AC50,[8],7.16 µM (active)
same,EC50,[9],7.56 µM (active)
same,AC50,[10],10.2 µM (active)
same,AC50,[11],2.64 µM (active)
same,IC50,[12],27 µM (active)
same,AC50,[13],1.51 µM (active)
same,EC50,[14],3.28 µM (active)
same,AC50,[3],0.68 µM (active)
Cc1ccc(S(=O)(=O)Nc2cc(C)c(O)cc2C)cc1,AC50,[3],3.11 µM (active)
C[C@H]1CN([C@@H](C)CO)C(=O)c2cccc(NC(=O)c3cnccn3)c2O[C@H]1CN(C)Cc1ccc(C(=O)Nc2ccccc2N)cc1,AC50,[2],0.803 µM (active)
CC(C)CC#Cc1ccc2c(c1)O[C@@H](CN(C)C(=O)C1CCCCC1)[C@H](C)CN([C@@H](C)CO)S2(=O)=O,AC50,[15],27.8 µM (active)
COc1cccc(NC(=O)CN2C(=O)COc3ccc(S(=O)(=O)N4CCC(C)CC4)cc32)c1,IC50,[16],7.97 µM (active)
same,EC50,[6],> 260 µM (inactive)
same,IC50,[17],6.57 µM (active)
C[C@@H]1CN([C@H](C)CO)C(=O)c2cc(NS(=O)(=O)c3ccc(Cl)cc3)ccc2O[C@H]1CN(C)Cc1ccc(Cl)c(Cl)c1,AC50,[2],1.81 µM (active)
Cc1ccc(C(=O)NCCSc2snnc2C)cc1,AC50,[3],0.117 µM (active)
C[C@@H]1CN([C@@H](C)CO)C(=O)c2cccc(NS(=O)(=O)c3ccccc3)c2O[C@@H]1CN(C)Cc1ccc(-c2ccccc2)cc1,AC50,[2],3.3 µM (active)
Cc1ccc(N2C(=O)NC(=O)/C(=C/c3cnc(-c4ccccc4)nc3)C2=O)cc1C,IC50,[7],1.66 µM (active)
